Laboratory results: PubChem BioAssay (NCI)
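Results reflect a 48-hour exposure of cells in 96-well plates to compound at five concentrations. Abbreviation: GI50, concentration required for 50% inhibition of growth. TGI denotes the concentration required for complete inhibition of growth.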

What was measured:
Assay in all cases: NCI-60 cell line screen, 48 h
NCI-H460 lung = test system: NCI-H460 lung
OVCAR-3 ovarian = test system: OVCAR-3 ovarian
HL-60(TB) leukemia = test system: HL-60(TB) leukemia
SW-620 colon = test system: SW-620 colon
A498 renal = test system: A498 renal
MDA-MB-468 breast = test system: MDA-MB-468 breast
MCF7 breast = test system: MCF7 breast
KM12 colon = test system: KM12 colon
MDA-MB-435 = test system: MDA-MB-435
SNB-75 CNS = test system: SNB-75 CNS
MOLT-4 leukemia = test system: MOLT-4 leukemia
DU-145 prostate = test system: DU-145 prostate
786-0 renal = test system: 786-0 renal
CCRF-CEM leukemia = test system: CCRF-CEM leukemia
COLO 205 colon = test system: COLO 205 colon
UO-31 renal = test system: UO-31 renal
NCI-H522 lung = test system: NCI-H522 lung
HS 578T breast = test system: HS 578T breast
IGROV1 ovarian = test system: IGROV1 ovarian
BT-549 breast = test system: BT-549 breast
M14 melanoma = test system: M14 melanoma
RPMI-8226 leukemia = test system: RPMI-8226 leukemia
HCT-116 colon = test system: HCT-116 colon
SF-268 CNS = test system: SF-268 CNS
A549 NSCLC = test system: A549 NSCLC
HOP-62 NSCLC = test system: HOP-62 NSCLC
EKVX NSCLC = test system: EKVX NSCLC
UACC-62 melanoma = test system: UACC-62 melanoma
OVCAR-5 ovarian = test system: OVCAR-5 ovarian
HCT-15 colon = test system: HCT-15 colon
MALME-3M melanoma = test system: MALME-3M melanoma
OVCAR-4 ovarian = test system: OVCAR-4 ovarian
SF-539 CNS = test system: SF-539 CNS
SN12C renal = test system: SN12C renal
RXF 393 renal = test system: RXF 393 renal
SNB-19 CNS = test system: SNB-19 CNS
T-47D breast = test system: T-47D breast
MDA-MB-231 breast = test system: MDA-MB-231 breast
OVCAR-8 ovarian = test system: OVCAR-8 ovarian
U251 CNS = test system: U251 CNS
LOX IMVI melanoma = test system: LOX IMVI melanoma
SK-MEL-2 melanoma = test system: SK-MEL-2 melanoma
HOP-92 NSCLC = test system: HOP-92 NSCLC
TK-10 renal = test system: TK-10 renal
UACC-257 melanoma = test system: UACC-257 melanoma
ACHN renal = test system: ACHN renal
SK-OV-3 ovarian = test system: SK-OV-3 ovarian
NCI-H23 lung = test system: NCI-H23 lung
SF-295 CNS = test system: SF-295 CNS
NCI-H226 lung = test system: NCI-H226 lung
HCC-2998 colon = test system: HCC-2998 colon
SK-MEL-5 melanoma = test system: SK-MEL-5 melanoma
CAKI-1 renal = test system: CAKI-1 renal
NCI/ADR-RES ovarian = test system: NCI/ADR-RES ovarian
PC-3 prostate = test system: PC-3 prostate
HT29 colon = test system: HT29 colon
SK-MEL-28 melanoma = test system: SK-MEL-28 melanoma
K-562 leukemia = test system: K-562 leukemia

Cn1cc(NC(=O)c2cc(NC(=O)c3ccc(C#Cc4ccccc4)cc3)cn2C)cc1C(=O)NCCCN1CCOCC1 was tested, and the GI50 (NCI-H460 lung) was 10.1 µM, the TGI (NCI-H460 lung) was over 32.5 µM and the GI50 (OVCAR-3 ovarian) was 6.21 µM. For the same compound, the TGI (OVCAR-3 ovarian) was over 32.5 µM, the GI50 (HL-60(TB) leukemia) was 5.19 µM and the TGI (HL-60(TB) leukemia) was 32.3 µM. For the same compound, the GI50 (SW-620 colon) was 9.25 µM, the TGI (SW-620 colon) was over 32.5 µM and the GI50 (A498 renal) was over 32.5 µM. The TGI (A498 renal) was over 32.5 µM, the GI50 (MDA-MB-468 breast) was 7.75 µM and the TGI (MDA-MB-468 breast) was 25.5 µM. For the same compound, the GI50 (MCF7 breast) was 6.15 µM, the TGI (MCF7 breast) was 30.8 µM and the GI50 (KM12 colon) was 11.2 µM. It also gave a TGI (KM12 colon) of over 32.5 µM, a GI50 (MDA-MB-435) of 9.91 µM and a TGI (MDA-MB-435) of over 32.5 µM. It also gave a GI50 (SNB-75 CNS) of 6.71 µM, a TGI (SNB-75 CNS) of over 32.5 µM and a GI50 (MOLT-4 leukemia) of 8.41 µM. It also gave a TGI (MOLT-4 leukemia) of over 32.5 µM, a GI50 (DU-145 prostate) of 11.6 µM and a TGI (DU-145 prostate) of over 32.5 µM. It also gave a GI50 (786-0 renal) of 9.11 µM, a TGI (786-0 renal) of 29.5 µM and a GI50 (CCRF-CEM leukemia) of 6.76 µM. It also gave a TGI (CCRF-CEM leukemia) of over 32.5 µM, a GI50 (COLO 205 colon) of over 32.5 µM and a TGI (COLO 205 colon) of over 32.5 µM. The GI50 (UO-31 renal) was 14 µM, the TGI (UO-31 renal) was over 32.5 µM and the GI50 (NCI-H522 lung) was 8.72 µM. The TGI (NCI-H522 lung) was over 32.5 µM, the GI50 (HS 578T breast) was 7.04 µM and the TGI (HS 578T breast) was over 32.5 µM. For the same compound, the GI50 (IGROV1 ovarian) was over 32.5 µM, the TGI (IGROV1 ovarian) was over 32.5 µM and the GI50 (BT-549 breast) was 5.22 µM. It also gave a TGI (BT-549 breast) of 20 µM, a GI50 (M14 melanoma) of 12.6 µM and a TGI (M14 melanoma) of over 32.5 µM. The GI50 (RPMI-8226 leukemia) was 5.61 µM, the TGI (RPMI-8226 leukemia) was 32.3 µM and the GI50 (HCT-116 colon) was 8.36 µM. For the same compound, the TGI (HCT-116 colon) was over 32.5 µM, the GI50 (SF-268 CNS) was 12.2 µM and the TGI (SF-268 CNS) was over 32.5 µM. The GI50 (A549 NSCLC) was 20 µM, the TGI (A549 NSCLC) was over 32.5 µM and the GI50 (HOP-62 NSCLC) was 18 µM. It also gave a TGI (HOP-62 NSCLC) of over 32.5 µM, a GI50 (EKVX NSCLC) of 10.6 µM and a TGI (EKVX NSCLC) of over 32.5 µM. For the same compound, the GI50 (UACC-62 melanoma) was 11 µM, the TGI (UACC-62 melanoma) was over 32.5 µM and the GI50 (OVCAR-5 ovarian) was over 32.5 µM. It also gave a TGI (OVCAR-5 ovarian) of over 32.5 µM, a GI50 (HCT-15 colon) of 5.47 µM and a TGI (HCT-15 colon) of 13.7 µM. The GI50 (MALME-3M melanoma) was 13.3 µM, the TGI (MALME-3M melanoma) was over 32.5 µM and the GI50 (OVCAR-4 ovarian) was 25.6 µM. For the same compound, the TGI (OVCAR-4 ovarian) was over 32.5 µM, the GI50 (SF-539 CNS) was 6.37 µM and the TGI (SF-539 CNS) was 14.5 µM. The GI50 (SN12C renal) was 7.08 µM, the TGI (SN12C renal) was over 32.5 µM and the GI50 (RXF 393 renal) was 2.55 µM. It also gave a TGI (RXF 393 renal) of 21.1 µM, a GI50 (SNB-19 CNS) of over 32.5 µM and a TGI (SNB-19 CNS) of over 32.5 µM. For the same compound, the GI50 (T-47D breast) was 5.88 µM, the TGI (T-47D breast) was over 32.5 µM and the GI50 (MDA-MB-231 breast) was 10.3 µM. For the same compound, the TGI (MDA-MB-231 breast) was over 32.5 µM, the GI50 (OVCAR-8 ovarian) was 6.14 µM and the TGI (OVCAR-8 ovarian) was 20.2 µM. For the same compound, the GI50 (U251 CNS) was 9.01 µM, the TGI (U251 CNS) was over 32.5 µM and the GI50 (LOX IMVI melanoma) was 4.94 µM. For the same compound, the TGI (LOX IMVI melanoma) was 9.38 µM, the GI50 (SK-MEL-2 melanoma) was 6.15 µM and the TGI (SK-MEL-2 melanoma) was 14.4 µM. It also gave a GI50 (HOP-92 NSCLC) of 5.05 µM, a TGI (HOP-92 NSCLC) of 20.4 µM and a GI50 (TK-10 renal) of over 32.5 µM. The TGI (TK-10 renal) was over 32.5 µM, the GI50 (UACC-257 melanoma) was 18.9 µM and the TGI (UACC-257 melanoma) was over 32.5 µM. It also gave a GI50 (ACHN renal) of 16.4 µM, a TGI (ACHN renal) of over 32.5 µM and a GI50 (SK-OV-3 ovarian) of over 32.5 µM. For the same compound, the TGI (SK-OV-3 ovarian) was over 32.5 µM, the GI50 (NCI-H23 lung) was 14.3 µM and the TGI (NCI-H23 lung) was over 32.5 µM. It also gave a GI50 (SF-295 CNS) of 12.6 µM, a TGI (SF-295 CNS) of over 32.5 µM and a GI50 (NCI-H226 lung) of 16.6 µM. The TGI (NCI-H226 lung) was over 32.5 µM, the GI50 (HCC-2998 colon) was 11.9 µM and the TGI (HCC-2998 colon) was over 32.5 µM. It also gave a GI50 (SK-MEL-5 melanoma) of 11.3 µM, a TGI (SK-MEL-5 melanoma) of over 32.5 µM and a GI50 (CAKI-1 renal) of 17.5 µM. The TGI (CAKI-1 renal) was over 32.5 µM, the GI50 (NCI/ADR-RES ovarian) was 7.66 µM and the TGI (NCI/ADR-RES ovarian) was 23.8 µM. The GI50 (PC-3 prostate) was 12.2 µM, the TGI (PC-3 prostate) was over 32.5 µM and the GI50 (HT29 colon) was 6.62 µM. The TGI (HT29 colon) was 22.9 µM, the GI50 (SK-MEL-28 melanoma) was over 32.5 µM and the TGI (SK-MEL-28 melanoma) was over 32.5 µM. The GI50 (K-562 leukemia) was 8.4 µM and the TGI (K-562 leukemia) was over 32.5 µM.
